Results on three molecules are retold here after patent EP1975177B1, “An appetite-suppressing peptide, its compositions and use” (Novo Nordisk A/S, priority 1996, dated 2011).

One assay has as its system fasted rats. The note with it: cited from earlier work.
A further assay deals with mice. Kind of assay: Appetite suppression in mice, consumption of 20% sucrose solution. In kind it is in vivo. The note with it: intraperitoneal injection, 50 micrograms, in phosphate buffered saline. The protocol: Mice were deprived of their normal feed for two days and given free access to a 20% sucrose solution on the first day of feed deprivation. After the 2-day feed deprivation period, mice were injected intraperitoneally with 0.5ml of a solution containing the test substance. Thirty minutes after injection, individual mice were placed in one of eight 15 cm^2 test box with a stainless steel grid floor and a glass drinking tube which projected into the box. The drinking tube was connected to a reservoir containing a 20% sucrose solution, and the interior of the drinking tube contained an electrode enabling the detection of drinking contacts with the solution by measuring the flow of a weak (unnoticeable) electric current through mice by means of an electronic apparatus connected to the drinking tube electrode and the stainless steel grid floor. Consumption of the sucrose solution was measured over a 10 minute period by electronically recording the total amount of contact with the sucrose solution during the test session. The degree of appetite suppression produced by a given test substance was determined by statistical comparison of the duration of sucrose consumption by control (vehicle treated) mice with that of mice treated with a test substance. The degree of appetite suppression in a treated group of mice was expressed as percent of the control groups response. […]

Where a SMILES comes first, the peptide text is derived from it.

For Glucagon, the “effect on food intake” value with fasted rats (fasted rats, intraperitoneal administration of pharmacological doses) is “no effect on food intake”.
On to GLP-1, for which the feeding entry in the assay on fasted rats (fasted rats, intracerebroventricular (ICV) administration) is reported as “inhibited feeding”. Also, the “effect on feeding behaviour” value with fasted rats (peripheral administration) is given as “no effect on feeding behaviour”.
With `CC[C@H](C)[C@H](NC(=O)[C@H](Cc1ccccc1)NC(=O)[C@H](CC(=O)O)NC(=O)[C@H](CCCNC(=N)N)NC(=O)[C@@H](NC(=O)[C@H](C)NC(=O)[C@H](CC(C)C)NC(=O)[C@H](CC(N)=O)NC(=O)[C@H](CC(=O)O)NC(=O)[C@H](CC(C)C)NC(=O)[C@@H](NC(=O)[C@@H](NC(=O)[C@H](CC(N)=O)NC(=O)[C@H](CCSC)NC(=O)[C@H](CCC(=O)O)NC(=O)[C@H](CC(=O)O)NC(=O)[C@H](CO)NC(=O)[C@H](Cc1ccccc1)NC(=O)[C@H](CO)NC(=O)CNC(=O)[C@H](CC(=O)O)NC(=O)[C@H](C)NC(=O)[C@@H](N)Cc1c[nH]cn1)[C@@H](C)O)C(C)C)[C@@H](C)O)C(=O)N[C@@H](CC(N)=O)C(=O)N[C@@H](Cc1c[nH]c2ccccc12)C(=O)N[C@@H](CC(C)C)C(=O)N[C@@H](CC(C)C)C(=O)N[C@@H](Cc1c[nH]cn1)C(=O)N[C@H](C(=O)N[C@@H](CCCCN)C(=O)N[C@H](C(=O)N[C@H](C(=O)N[C@@H](CC(=O)O)C(=O)O)[C@@H](C)O)[C@@H](C)CC)[C@@H](C)O` [synthetic porcine GLP-2, porcine GLP-2] (H-HADGSFSDEMNTVLDNLATRDFINWLLHTKITD-OH), in the assay on mice, the suppressed sucrose consumption came to 38%.
